Test results taken from PubChem BioAssay (NCI).
“And” between values parts separate entries of the source, which are not always exact repeats. Identical values can stand only once.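 Dose response: 5 concentrations. Exposure: 48 h. Format: 96-well plates. Endpoint: linear interpolation; highest concentration if not reached. The concentration for 50% growth inhibition is given as GI50. Definition used: TGI = concentration required for complete inhibition of growth.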

Each compound was assayed on A549 NSCLC (assay: growth of human tumour cells (NCI), 48 h).

SMILES | GI50 | TGI
Nc1nc2[nH]cc(CCc3ccc(C(=O)N[C@@H](CCC(=O)O)C(=O)O)cc3)c2c(=O)[nH]1 | 0.587 µM | > 100 µM
Fc1cc(-c2nnc3n2N=C(c2ccc(Cl)cc2)CS3)c(Cl)cc1Cl | 18.7 µM | 41.8 µM
CN1CCN(C(=O)COc2ccc(C34CC5CC(CC(C5)C3)C4)cc2)CC1 | 13 µM | 37.2 µM
COc1ccccc1NC(=O)c1cc2cc(Br)ccc2cc1O | 2.65 µM | 7.71 µM
CC(=O)OCc1ccc2c(c1)C(O)NC(=O)O2 (stereo not drawn) |  | > 100 µM
O=C(Nc1nn2c(-c3cc(C(F)(F)F)cc(C(F)(F)F)c3)nnc2s1)C1CCCC1 | 1.08 µM | > 100 µM
COC(=O)[C@]12CC[C@@H](C)[C@H](C)[C@@H]1C1=CC[C@@H]3[C@@]4(C)C[C@@H](O)[C@H](O)[C@@](C)(CO)[C@@H]4[C@H](O)C[C@@]3(C)[C@]1(C)CC2 | 15.8 µM | 45.2 µM
COc1ccc(CN2C(=O)C(Cl)=C(Nc3cccc(C(F)(F)F)c3)C2=O)cc1 | 8.54 µM | > 100 µM
COCCn1cc(-c2nc(-c3cc4cccnc4[nH]3)cs2)c2cc(OC)ccc21 | 3.79 µM | > 100 µM
O=[N+]([O-])c1cc([N+](=O)[O-])c(C(F)(F)F)cc1NN=C(c1ccc(O)cc1)c1ccc(O)cc1 | 2.98 µM | 14.5 µM
NCCNCCNCCN | > 100 µM | > 100 µM
c1ccc(Nc2ncc(-c3ccccc3)o2)cc1 | > 25 µM | > 25 µM
COc1ccc(C(c2cc(OC)c(OC)c(OC)c2)n2cncn2)cc1O (stereo not drawn) | 0.969 µM | > 100 µM
COc1c2ccccc2c(OC)c2[nH]c(=O)ccc12 | 2.43 µM | > 20.6 µM
O=C(O)C(Cl)Cl | 7560 µM and > 10000 µM | > 10000 µM
NC(=S)N/N=C\c1nccc2c(C(F)(F)F)cccc12 | 0.293 µM | 3.26 µM
CC(=O)N[C@@H](Cc1ccc(OP(=O)(O)O)cc1)C(=O)N[C@H]1CCC(=O)N2CCC[C@@H](C(=O)Nc3cccc4ccccc34)N2C1=O | > 25 µM | > 25 µM

Each compound was assayed on MCF7 breast (assay: growth of human tumour cells (NCI), 48 h).

SMILES | GI50 | TGI
Nc1nc2[nH]cc(CCc3ccc(C(=O)N[C@@H](CCC(=O)O)C(=O)O)cc3)c2c(=O)[nH]1 | 0.0246 µM | > 100 µM
Fc1cc(-c2nnc3n2N=C(c2ccc(Cl)cc2)CS3)c(Cl)cc1Cl | 4.56 µM | 17.9 µM
CN1CCN(C(=O)COc2ccc(C34CC5CC(CC(C5)C3)C4)cc2)CC1 | 12.7 µM | 29.7 µM
COc1ccccc1NC(=O)c1cc2cc(Br)ccc2cc1O | 1.76 µM | 9.3 µM
CC(=O)OCc1ccc2c(c1)C(O)NC(=O)O2 (stereo not drawn) |  | > 100 µM
O=C(Nc1nn2c(-c3cc(C(F)(F)F)cc(C(F)(F)F)c3)nnc2s1)C1CCCC1 | 0.512 µM | > 33.7 µM
COC(=O)[C@]12CC[C@@H](C)[C@H](C)[C@@H]1C1=CC[C@@H]3[C@@]4(C)C[C@@H](O)[C@H](O)[C@@](C)(CO)[C@@H]4[C@H](O)C[C@@]3(C)[C@]1(C)CC2 | 12.1 µM | 41 µM
COc1ccc(CN2C(=O)C(Cl)=C(Nc3cccc(C(F)(F)F)c3)C2=O)cc1 | 2.7 µM | 17.2 µM
COCCn1cc(-c2nc(-c3cc4cccnc4[nH]3)cs2)c2cc(OC)ccc21 | 0.0433 µM | 2.67 µM
O=[N+]([O-])c1cc([N+](=O)[O-])c(C(F)(F)F)cc1NN=C(c1ccc(O)cc1)c1ccc(O)cc1 | 2.63 µM | 7.73 µM
NCCNCCNCCN | > 100 µM | > 100 µM
c1ccc(Nc2ncc(-c3ccccc3)o2)cc1 | 12.4 µM | > 25 µM
COc1ccc(C(c2cc(OC)c(OC)c(OC)c2)n2cncn2)cc1O (stereo not drawn) | 0.347 µM | > 100 µM
COc1c2ccccc2c(OC)c2[nH]c(=O)ccc12 | 4.37 µM | > 54.8 µM
O=C(O)C(Cl)Cl | 5560 µM and > 10000 µM | > 10000 µM
NC(=S)N/N=C\c1nccc2c(C(F)(F)F)cccc12 | 0.317 µM | 13.3 µM
CC(=O)N[C@@H](Cc1ccc(OP(=O)(O)O)cc1)C(=O)N[C@H]1CCC(=O)N2CCC[C@@H](C(=O)Nc3cccc4ccccc34)N2C1=O | > 25 µM | > 25 µM

These compounds were tested on OVCAR-4 ovarian (assay: growth of human tumour cells (NCI), 48 h).

SMILES | TGI | GI50
Nc1nc2[nH]cc(CCc3ccc(C(=O)N[C@@H](CCC(=O)O)C(=O)O)cc3)c2c(=O)[nH]1 | > 100 µM | 
Fc1cc(-c2nnc3n2N=C(c2ccc(Cl)cc2)CS3)c(Cl)cc1Cl | 32.8 µM | 7.91 µM
CN1CCN(C(=O)COc2ccc(C34CC5CC(CC(C5)C3)C4)cc2)CC1 | 76.9 µM | 20.8 µM
COc1ccccc1NC(=O)c1cc2cc(Br)ccc2cc1O | 21.4 µM | 3.11 µM
CC(=O)OCc1ccc2c(c1)C(O)NC(=O)O2 (stereo not drawn) | > 100 µM | 
O=C(Nc1nn2c(-c3cc(C(F)(F)F)cc(C(F)(F)F)c3)nnc2s1)C1CCCC1 | > 37.9 µM | 0.748 µM
COC(=O)[C@]12CC[C@@H](C)[C@H](C)[C@@H]1C1=CC[C@@H]3[C@@]4(C)C[C@@H](O)[C@H](O)[C@@](C)(CO)[C@@H]4[C@H](O)C[C@@]3(C)[C@]1(C)CC2 | 32.8 µM | 12.1 µM
COc1ccc(CN2C(=O)C(Cl)=C(Nc3cccc(C(F)(F)F)c3)C2=O)cc1 | 30.6 µM | 4.74 µM
COCCn1cc(-c2nc(-c3cc4cccnc4[nH]3)cs2)c2cc(OC)ccc21 | > 30.8 µM | 0.0278 µM
O=[N+]([O-])c1cc([N+](=O)[O-])c(C(F)(F)F)cc1NN=C(c1ccc(O)cc1)c1ccc(O)cc1 | 19.2 µM | 3.25 µM
NCCNCCNCCN | > 100 µM | > 100 µM
c1ccc(Nc2ncc(-c3ccccc3)o2)cc1 | > 25 µM | > 21.1 µM
COc1ccc(C(c2cc(OC)c(OC)c(OC)c2)n2cncn2)cc1O (stereo not drawn) | > 100 µM | 3.02 µM
COc1c2ccccc2c(OC)c2[nH]c(=O)ccc12 | > 100 µM | 11.1 µM
O=C(O)C(Cl)Cl | > 10000 µM | 3300 µM and 8520 µM
NC(=S)N/N=C\c1nccc2c(C(F)(F)F)cccc12 | 24.8 µM | 0.162 µM
CC(=O)N[C@@H](Cc1ccc(OP(=O)(O)O)cc1)C(=O)N[C@H]1CCC(=O)N2CCC[C@@H](C(=O)Nc3cccc4ccccc34)N2C1=O | > 25 µM | > 25 µM

These compounds were tested on HL-60(TB) leukemia (assay: growth of human tumour cells (NCI), 48 h).

SMILES | GI50 | TGI
Nc1nc2[nH]cc(CCc3ccc(C(=O)N[C@@H](CCC(=O)O)C(=O)O)cc3)c2c(=O)[nH]1 | 0.684 µM | > 100 µM
Fc1cc(-c2nnc3n2N=C(c2ccc(Cl)cc2)CS3)c(Cl)cc1Cl | 0.96 µM | > 100 µM
CN1CCN(C(=O)COc2ccc(C34CC5CC(CC(C5)C3)C4)cc2)CC1 | 4.7 µM | 23.2 µM
COc1ccccc1NC(=O)c1cc2cc(Br)ccc2cc1O | 2.14 µM | > 22.1 µM
CC(=O)OCc1ccc2c(c1)C(O)NC(=O)O2 (stereo not drawn) |  | > 100 µM
O=C(Nc1nn2c(-c3cc(C(F)(F)F)cc(C(F)(F)F)c3)nnc2s1)C1CCCC1 | 0.407 µM | 1.75 µM
COC(=O)[C@]12CC[C@@H](C)[C@H](C)[C@@H]1C1=CC[C@@H]3[C@@]4(C)C[C@@H](O)[C@H](O)[C@@](C)(CO)[C@@H]4[C@H](O)C[C@@]3(C)[C@]1(C)CC2 | 9.1 µM | 30.3 µM
COc1ccc(CN2C(=O)C(Cl)=C(Nc3cccc(C(F)(F)F)c3)C2=O)cc1 | 2.56 µM | 19.5 µM
COCCn1cc(-c2nc(-c3cc4cccnc4[nH]3)cs2)c2cc(OC)ccc21 | 2.95 µM | 13.3 µM
O=[N+]([O-])c1cc([N+](=O)[O-])c(C(F)(F)F)cc1NN=C(c1ccc(O)cc1)c1ccc(O)cc1 | 3.12 µM | 11.8 µM
NCCNCCNCCN | > 100 µM | > 100 µM
c1ccc(Nc2ncc(-c3ccccc3)o2)cc1 | 24 µM | > 25 µM
COc1ccc(C(c2cc(OC)c(OC)c(OC)c2)n2cncn2)cc1O (stereo not drawn) | 0.261 µM | 0.687 µM
COc1c2ccccc2c(OC)c2[nH]c(=O)ccc12 | 12.4 µM | > 92.4 µM
O=C(O)C(Cl)Cl | 7270 µM and > 7660 µM | > 10000 µM
NC(=S)N/N=C\c1nccc2c(C(F)(F)F)cccc12 | 0.286 µM | 1.19 µM
CC(=O)N[C@@H](Cc1ccc(OP(=O)(O)O)cc1)C(=O)N[C@H]1CCC(=O)N2CCC[C@@H](C(=O)Nc3cccc4ccccc34)N2C1=O | > 25 µM | > 25 µM

The compounds below were run on K-562 leukemia (assay: growth of human tumour cells (NCI), 48 h).

SMILES | TGI | GI50
Nc1nc2[nH]cc(CCc3ccc(C(=O)N[C@@H](CCC(=O)O)C(=O)O)cc3)c2c(=O)[nH]1 | > 100 µM | 
Fc1cc(-c2nnc3n2N=C(c2ccc(Cl)cc2)CS3)c(Cl)cc1Cl | > 100 µM | 1.57 µM
CN1CCN(C(=O)COc2ccc(C34CC5CC(CC(C5)C3)C4)cc2)CC1 | 46.5 µM | 4.38 µM
COc1ccccc1NC(=O)c1cc2cc(Br)ccc2cc1O | > 100 µM | 2.37 µM
CC(=O)OCc1ccc2c(c1)C(O)NC(=O)O2 (stereo not drawn) | > 100 µM | 
O=C(Nc1nn2c(-c3cc(C(F)(F)F)cc(C(F)(F)F)c3)nnc2s1)C1CCCC1 | > 100 µM | 0.488 µM
COC(=O)[C@]12CC[C@@H](C)[C@H](C)[C@@H]1C1=CC[C@@H]3[C@@]4(C)C[C@@H](O)[C@H](O)[C@@](C)(CO)[C@@H]4[C@H](O)C[C@@]3(C)[C@]1(C)CC2 | 45.7 µM | 12.7 µM
COc1ccc(CN2C(=O)C(Cl)=C(Nc3cccc(C(F)(F)F)c3)C2=O)cc1 | 51.5 µM | 3.26 µM
COCCn1cc(-c2nc(-c3cc4cccnc4[nH]3)cs2)c2cc(OC)ccc21 | > 27.3 µM | 3.48 µM
O=[N+]([O-])c1cc([N+](=O)[O-])c(C(F)(F)F)cc1NN=C(c1ccc(O)cc1)c1ccc(O)cc1 | 15.7 µM | 2.42 µM
NCCNCCNCCN | > 100 µM | > 100 µM
c1ccc(Nc2ncc(-c3ccccc3)o2)cc1 | > 25 µM | > 25 µM
COc1ccc(C(c2cc(OC)c(OC)c(OC)c2)n2cncn2)cc1O (stereo not drawn) | > 100 µM | 0.427 µM
COc1c2ccccc2c(OC)c2[nH]c(=O)ccc12 | > 100 µM | 6.39 µM
O=C(O)C(Cl)Cl | > 10000 µM | 6300 µM and > 10000 µM
NC(=S)N/N=C\c1nccc2c(C(F)(F)F)cccc12 | 21.2 µM | 0.44 µM
CC(=O)N[C@@H](Cc1ccc(OP(=O)(O)O)cc1)C(=O)N[C@H]1CCC(=O)N2CCC[C@@H](C(=O)Nc3cccc4ccccc34)N2C1=O | > 25 µM | > 25 µM
